How the values were obtained:
human Src kinase = molecular target: T1, human Src kinase (Homo sapiens, UniProt P12931); experiment: Src inhibition assay (radioactivity-based assay A or spectrophotometric assay B); type: biochemical; settings: recombinant human Src, poly Glu-Tyr substrate; assay A or B not specified
T1 construct: full length recombinant human Src kinase (from Upstate Biotechnology, cat. no. 14-117); purchased Upstate Biotechnology 14-117; host or cells: baculovirus-infected (insect) cells
T1 sequence (P12931 whole entry): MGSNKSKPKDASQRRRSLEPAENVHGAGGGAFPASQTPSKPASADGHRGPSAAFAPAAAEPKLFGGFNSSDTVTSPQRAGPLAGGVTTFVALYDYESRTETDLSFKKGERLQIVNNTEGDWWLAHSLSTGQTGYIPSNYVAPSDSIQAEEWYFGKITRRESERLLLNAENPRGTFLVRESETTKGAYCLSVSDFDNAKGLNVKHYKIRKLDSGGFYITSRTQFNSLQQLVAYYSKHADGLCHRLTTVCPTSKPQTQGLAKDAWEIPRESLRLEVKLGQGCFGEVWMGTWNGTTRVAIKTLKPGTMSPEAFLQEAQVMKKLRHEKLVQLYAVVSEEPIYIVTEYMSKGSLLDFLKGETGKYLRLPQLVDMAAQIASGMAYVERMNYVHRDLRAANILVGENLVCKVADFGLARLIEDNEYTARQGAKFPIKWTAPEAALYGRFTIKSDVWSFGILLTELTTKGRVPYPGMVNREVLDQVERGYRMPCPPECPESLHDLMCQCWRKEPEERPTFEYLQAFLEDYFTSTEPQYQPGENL
Protocol: The compounds were evaluated as inhibitors of human Src kinase using either a radioactivity-based assay or spectrophotometric assay.
(§1) The compounds were assayed as inhibitors of full length recombinant human Src kinase (from Upstate Biotechnology, cat. no. 14-117) expressed and purified from baculo viral cells. Src kinase activity was monitored by following the incorporation of ^33P from ATP into the tyrosine of a random poly Glu-Tyr polymer substrate of composition, Glu:Tyr=4:1 (Sigma, cat. no. P-0275). The following were the final concentrations of the assay components: 0.05 M HEPES, pH 7.6, 10 mM MgCl2, 2 mM DTT, 0.25 mg/ml BSA, 10 μM ATP (1-2 μCi ^33P-ATP per reaction), 5 mg/ml poly Glu-Tyr, and 1-2 units of recombinant human Src kinase. In a typical assay, all the reaction components with the exception of ATP were pre-mixed and aliquoted into assay plate wells. Inhibitors dissolved in DMSO were added to the wells to give a final DMSO concentration of 2.5%. The assay plate was incubated at 30° C. for 10 minutes before initiating the reaction with ^33P-ATP. After 20 minutes of reaction, the reactions were quenched with 150 μl of 10% trichloroacetic acid (TCA) containing 20 mM Na3PO4. The quenched samples were then transferred to a 96-well filter plate (Whatman, UNI-Filter GF/F Glass Fiber Filter, cat no. 7700-3310) installed on a filter plate vacuum manifold. Filter plates were washed four times with 10% TCA containing 20 mM Na3PO4 and then 4 times with methanol. 200 μl of scintillation fluid was then added to each well. The plates were sealed and the amount of radioactivity associated with the filters was quantified on a TopCount scintillation counter. The radioactivity incorporated was plotted as a function of the inhibitor concentration. The data was fitted to a competitive inhibition kinetics model to get the Ki for the compound.
(§2) The ADP produced from ATP by the human recombinant Src kinase-catalyzed phosphorylation of poly Glu-Tyr substrate was quanitified using a coupled enzyme assay (Fox et al (1998) Protein Sci 7, 2249). In this assay one molecule of NADH is oxidised to NAD for every molecule of ADP produced in the kinase reaction. The disappearance of NADH can be conveniently followed at 340 nm.
(§3) The following were the final concentrations of the assay components: 0.025 M HEPES, pH 7.6, 10 mM MgCl2, 2 mM DTT, 0.25 mg/ml poly Glu-Tyr, and 25 nM of recombinant human Src kinase. Final concentrations of the components of the coupled enzyme system were 2.5 mM phosphoenolpyruvate, 200 μM NADH, 30 μg/ml pyruvate kinase and 10 μg/ml lactate dehydrogenase.
(§4) In a typical assay, all the reaction components with the exception of ATP were pre-mixed and aliquoted into assay plate wells. Inhibitors dissolved in DMSO were added to the wells to give a final DMSO concentration of 2.5%. The assay plate was incubated at 30° C. for 10 minutes before initiating the reaction with 100 μM ATP. The absorbance change at 340 nm with time, the rate of the reaction, was monitored on a molecular devices plate reader. The data of rate as a function of the inhibitor concentration was fitted to compettive inhibition kinetics model to get the Ki for the compound.

human Lck kinase = human Lck kinase (UniProt P06239); experiment: Lck inhibition assay (radioactivity-based assay A or spectrophotometric assay B); type: biochemical; settings: poly Glu-Tyr substrate; assay A or B not specified; read-out: Lck Activity (Ki class)
Protocol: The compounds were evaluated as inhibitors of human Lck kinase using either a radioactivity-based assay or spectrophotometric assay.
as §1, with “length bovine thymus Lck” for “length recombinant human Src”, “no. 14-106)” for “no. 14-117)”, “cells. Lck” for “cells. Src”, “components: 0.025” for “components: 0.05”, “20 min” for “20 minutes”
as §2, with “Lck” for “Src”
as §3, with “DTT, 5” for “DTT, 0.25”, “and 50” for “and 25”, “human Lck” for “human Src”
as §4, with “150” for “100”, “competitive” for “compettive”

Ki (human Src kinase) [nM] | Ki (human Lck kinase) [nM] | Compound
< 100 | < 100 | Cc1onc(C2CCCCC2)c1-c1ccnc(Nc2cccc(OCCOC3CCCCO3)c2)n1 (centres unmarked) [IIIa-1]
< 100 | < 100 | Cc1onc(C2CCCCC2)c1-c1ccnc(Nc2cccc(OCCN3CCOCC3)c2)n1 [IIIa-2]
< 100 | < 100 | Cc1onc(C2CCCCC2)c1-c1ccnc(Nc2cccc(OCCN3CCCC3)c2)n1 [IIIa-3]
< 100 | < 100 | Cc1onc(C2CCCCC2)c1-c1ccnc(Nc2cccc(OCCN3CCCCC3)c2)n1 [IIIa-4]
< 100 | < 100 | Cc1onc(C2CCCCC2)c1-c1ccnc(Nc2cccc(OCCN3CCC(O)CC3)c2)n1 [IIIa-5]
< 100 | < 100 | Cc1onc(C2CCCCC2)c1-c1ccnc(Nc2cccc(OCCN3CCC(CO)CC3)c2)n1 [IIIa-6]
< 100 | < 100 | Cc1onc(C2CCCCC2)c1-c1ccnc(Nc2cccc(OCCN3CCC[C@H]3CO)c2)n1 [IIIa-7]
< 100 | < 100 | Cc1onc(C2CCCCC2)c1-c1ccnc(Nc2cccc(OCCN3CCN(CCO)CC3)c2)n1 [IIIa-8]
– | < 100 | Cc1onc(C2CCCCC2)c1-c1ccnc(Nc2cccc(OCCCN3CCC(O)CC3)c2)n1 [IIIa-9]
– | < 100 | Cc1onc(C2CCCCC2)c1-c1ccnc(Nc2cccc(OCCCN3CCC(CO)CC3)c2)n1 [IIIa-10]
– | < 100 | Cc1onc(C2CCCCC2)c1-c1ccnc(Nc2cccc(OCCCN3CCC[C@H]3CO)c2)n1 [IIIa-11]
– | < 100 | Cc1onc(C2CCCCC2)c1-c1ccnc(Nc2cccc(OCCCN3CCN(CCO)CC3)c2)n1 [IIIa-12]
– | < 100 | Cc1onc(C2CCCCC2)c1-c1ccnc(Nc2cccc(OCCCN3CCCC(O)C3)c2)n1 (centres unmarked) [IIIa-13]
– | < 100 | Cc1onc(C2CCCCC2)c1-c1ccnc(Nc2cccc(OCCCN3CCOCC3)c2)n1 [IIIa-15]
– | < 100 | Cc1onc(C2CCCCC2)c1-c1ccnc(Nc2cccc(OCCCN3CCCC3)c2)n1 [IIIa-16]
– | < 100 | Cc1onc(C2CCCCC2)c1-c1ccnc(Nc2cccc(OCCCN3CCCCC3)c2)n1 [IIIa-17]
– | < 100 | Cc1onc(C2CCCCC2)c1-c1ccnc(Nc2cccc(OCCCN3CCNCC3)c2)n1 [IIIa-18]

Ki (human Src kinase) [nM] | Ki (human Lck kinase) [nM] | Compound
– | < 100 | Cc1onc(C2CCCCC2)c1-c1ccnc(Nc2cccc(OCCCCN3CCC(O)CC3)c2)n1 [IIIa-19]
– | < 100 | Cc1onc(C2CCCCC2)c1-c1ccnc(Nc2cccc(OCCCCN3CCN(CCO)CC3)c2)n1 [IIIa-22]
– | < 100 | CCN1CCN(CCCCOc2cccc(Nc3nccc(-c4c(C5CCCCC5)noc4C)n3)c2)CC1 [IIIa-23]
– | < 100 | Cc1onc(C2CCCCC2)c1-c1ccnc(Nc2cccc(OCCCCN3CCOCC3)c2)n1 [IIIa-24]
– | < 100 | Cc1onc(C2CCCCC2)c1-c1ccnc(Nc2cccc(OCCCCN3CCCC3)c2)n1 [IIIa-25]
– | < 100 | Cc1onc(C2CCCCC2)c1-c1ccnc(Nc2cccc(OCCCCN3CCCCC3)c2)n1 [IIIa-26]
– | > 1000 | Cc1onc(C2CCCCC2)c1-c1ccnc(Nc2cccc(OC3CCCN(C(=O)OC(C)(C)C)C3)c2)n1 (centres unmarked) [IIIa-28]
– | < 100 | Cc1onc(C2CCCCC2)c1-c1ccnc(Nc2cccc(OC3CCCNC3)c2)n1 (centres unmarked) [IIIa-29]
– | > 1000 | Cc1onc(C2CCCCC2)c1-c1ccnc(Nc2cccc(OCC3CCCN(C(=O)OC(C)(C)C)C3)c2)n1 (centres unmarked) [IIIa-30]
– | < 100 | Cc1onc(C2CCCCC2)c1-c1ccnc(Nc2cccc(OCC3CCCNC3)c2)n1 (centres unmarked) [IIIa-31]
– | > 1000 | COc1cc(Nc2ncc(C(=O)O)c(-c3c(C4CCCCC4)noc3C)n2)cc(OC)c1 [IIIb-24]
– | > 1000 | COc1cc(Nc2ncc(CO)c(-c3c(C4CCCCC4)noc3C)n2)cc(OC)c1 [IIIb-25]
– | > 1000 | COc1cc(Nc2ncc(C(N)=O)c(-c3c(C4CCCCC4)noc3C)n2)cc(OC)c1 [IIIb-26]
– | 100 to 1000 | COc1cc(Nc2ncc(C#N)c(-c3c(C4CCCCC4)noc3C)n2)cc(OC)c1 [IIIb-27]
< 100 | < 100 | CCc1onc(C2CCCCC2)c1-c1nc(Nc2cccc(O)c2)ncc1C [IIIb-28]
– | < 100 | CCCOCc1cnc(Nc2cc(OC)cc(OC)c2)nc1-c1c(C2CCCCC2)noc1C [IIIb-29]
< 100 | < 100 | Cc1onc(C2CCCCC2)c1-c1ccnc(Nc2cccc(NC(=O)CCN3CCCCC3)c2)n1 [Va-1]

Source: patent US6689778B2, “Inhibitors of Src and Lck protein kinases” (Vertex Pharmaceuticals Incorporated, priority 2001, dated 2004)
